Measurements published in US11759438B2, “Compositions and methods for treating ocular pathologies” (priority 2017, dated 2023).
Like-named read-outs stand apart in the source and are kept apart here.

Experiments:
[1] = system: HSV-1; parameters: species or system mice; conditions: 500 nM; for HSV-1 reactivation from latency (in words): ex vivo TG explants
[2] = system: VEGF-mediated corneal vascularization; test: VEGF-mediated ocular vascularization model, topical DOI; assay type: in vivo, rabbit; conditions: eyes treated with DOI
Experimental: A rabbit corneal micropocket assay is used to assess the ability of topically administered DOI to prevent VEGF-mediated corneal vascularization. VEGF or saline control slow release micropellets are generated as described previously. A corneal micropocket is created in each rabbit eye 3.0 mm from the corneal limbus, and micropellets are implanted. Starting the day after implant, paired OD and OS eyes are treated four times daily with either control (OD eyes) or DOI (OS eyes) drops, respectively. The utilization of sister eyes for topical drug evaluation controls for animal-to-animal variability. Eyes are clinically assessed daily and imaged by slit lamp biomicroscopy as described in all other ocular studies herein.
VEGF-induced vascularization and vessel permeability can lead to corneal edema, inflammation, and ocular clouding. Therefore, a panel of clinical parameters (described herein) is assessed daily by fluorescent slit-lamp biomicroscopy to ascertain the therapeutic effects of topical DOI treatment on vascularization-mediated eye disease.
VEGF is a known mediator of vascular permeability and we have observed in this model system that edema and chemosis is common, irrespective of the extent of vascularization induced. […]

[3] = system: Herpes Simplex Virus type 1 (HSV-1) RE strain; test: Herpes stromal keratitis model, C57bl/6 mice, topical eye drops; assay type: in vivo
[4] = system: human microvascular endothelial cells (HMEC) spheroids; test: Spheroid tubule growth assay; assay type: cell-based; conditions: matrigel with VEGF; serotonin 50 nM, R-DOI 100 nM, TCB2 500 nM
Experimental: FIG. 16 is a series of fluorescent micrographs showing the effect of 5HT2A receptor agonists on vascular tubule growth from tissue-like spheroids.
HMEC cells were cultured in specially coated U-shaped bottom 96 well plates in order to form tissue-like three-dimension spheroids. Spheroids were subsequently implanted into wells that contained matrigel basement membranes supplemented with vascular endothelial growth factor (VEGF) or starved (Starvation control-no VEGF). Culture media was treated with either serotonin (50 nM), (R-DOI (100 nM), or TCB2 (500 nM) outgrowth from the spheroids of vascular-like structures was monitored microscopically.

[5] = system: Herpes Simplex Virus type 1 (HSV-1) RE strain; test: Herpes stromal keratitis model, BALB/c mice, topical eye drops, clinical scoring and histology; assay type: in vivo; conditions: for animal body weight: HSV-1 infected mice, relative to BSS controls; for HSV-induced pathological vascularization of the eye: mouse models of herpetic keratitis, ophthalmic formulation
Experimental: DOI drops were topically applied for 7 days post infection and chronic disease was assessed up to day 15.
There is a complete absence of inflammatory or red blood cells and no vascularization of corneal tissue. 2nd row panels: HSV infection and long-term inflammatory responses induces disruption of the epithelial layer, thickening of the stroma, and identifiable vascularization of corneal tissue (yellow arrows) with extensive presence of immune infiltrates.
16 BALB/c mice were randomly sorted into 3 treatment arms: 1) Ophthalmic Balanced Saline Solution diluted 1:1 in PBS (BSS+PBS) treated (6 mice); 2) DOI treated (XTPFDOI) (5 mice); 3) 1.0% TFT (TFT+PBS) (5 mice). Animals were anesthetized with […]:ketamine and both eyes were scarified in a cross hatch pattern using a curved needle. Immediately following ocular scarification, eyes were inoculated with a 3 microliter drop containing 10,000 plaque forming units (PFU) of Herpes Simplex Virus type 1 (HSV-1) RE strain. The next morning following infection, animals were treated with the respective treatment as assigned within their treatment arm. Treatments were applied topically to the eye in a 4 microliter drop. Drops were applied 4 time per day from 9:00 am to 5:30 pm, starting immediately following clinical scoring. Treatments were applied for the first 8 days post infection and then stopped. Clinical scoring was done using a slit lamp biomicroscope magnified at 16× on the days indicated by a single individual masked to the drug treatment parameters. Slit lamp biomicroscopy also included fluorescein exclusion labeling of the corneal surface following scoring of all clinical parameters. Each eye was scored independently. Animal deaths were recorded if euthanasia was required due to severe encephalitis or if animals died from HSV-associated disease. Clinically clear eyes were scored as such if no apparent signs of disease were present in any clinical parameter during the chronic phase.
At day 15 post infection, a stage that would be during chronic immune-associated disease with no virus present, animals were euthanized and the eyes were removed for histology. Random representative eyes were prepared by taking sections through the central cornea and processed by H&E histology for visualization. Sections were examined microscopically and photographed across the central cornea.

[6] = system: cancerous retinoblastoma cells (Y-79); test: Cytotoxicity by lysis, retinoblastoma cells; assay type: cell-based; conditions: varying doses
Experimental: (§1) FIG. 17 is a series of graphs showing the effect of R-DOI dose on cytotoxicity of healthy retinal pigment epithelial cells (APRE) and cancerous retinoblastoma cells (Y-79) at 24 hours (top), 48 hours (middle), and 72 hours (bottom).
(§2) Healthy (APRE) and cancerous (Y-79) retinal cell lines were treated with varying doses of R-DOI and monitored for cytotoxicity by lysis at 24 hour intervals.

[7] = system: healthy retinal pigment epithelial cells (APRE); test: Cytotoxicity by lysis, healthy retinal cells; assay type: cell-based; conditions: highest dose tested
Experimental: as §1, §2

[8] = system: aortic rings; test: Aortic ring assay (VEGF-mediated neovascularization); parameters: species or system mice
Experimental: FIG. 13 is a series of photographs showing VEGF-mediated neovascularization from aortic rings in the presence of R-DOI, TCB2, and 4F4PP.
These aortic rings are implanted into matrigel basement membrane and incubated in endothelial cell growth medium containing vascular endothelial growth factor. Aortic rings are continuously incubated in the presence of 5-HT2A receptor agonists and antagonists at the indicated concentrations and examined by microscopy daily. Extensive sprouting, branching and networking of new blood vessels can be observed in control aortic rings, where multiple images needed to be stitched together in order to capture the extensive blood vessel network formed.

[9] = relative to BSS controls and TFT controls, by day 12 post-infection

Compound: COc1cc(CC(C)N)c(OC)cc1I (stereo not drawn) [DOI, 1-(4-Iodo-2,5-dimethoxyphenyl)propan-2-amine]
- ganglia positive for infectious HSV-1 (number/total) ([1]; day 1 post-explant): 0/7
- percentage positive for infectious HSV-1 ([1]; day 1 post-explant): (0%)
- ganglia positive for infectious HSV-1 (number/total) ([1]; day 2 post-explant): 0/7
- percentage positive for infectious HSV-1 ([1]; day 2 post-explant): (0%)
- ganglia positive for infectious HSV-1 (number/total) ([1]; day 3 post-explant): 0/7
- percentage positive for infectious HSV-1 ([1]; day 3 post-explant): (0%)
- ganglia positive for infectious HSV-1 (number/total) ([1]; day 4 post-explant): 0/7
- percentage positive for infectious HSV-1 ([1]; day 4 post-explant): (0%)
- ganglia positive for infectious HSV-1 (number/total) ([1]; day 5 post-explant): 0/7
- percentage positive for infectious HSV-1 ([1]; day 5 post-explant): (0%)
- ganglia positive for infectious HSV-1 (number/total) ([1]; day 6 post-explant): 0/7
- percentage positive for infectious HSV-1 ([1]; day 6 post-explant): (0%)
- ganglia positive for infectious HSV-1 (number/total) ([1]; day 7 post-explant): 0/7
- percentage positive for infectious HSV-1 ([1]; day 7 post-explant): (0%)
- ganglia positive for infectious HSV-1 (number/total) ([1]; day 8 post-explant): 1/7
- percentage positive for infectious HSV-1 ([1]; day 8 post-explant): (14.3%)
- ganglia positive for infectious HSV-1 (number/total) ([1]; day 9 post-explant): 1/7
- percentage positive for infectious HSV-1 ([1]; day 9 post-explant): (14.3%)
- ganglia positive for infectious HSV-1 (number/total) ([1]; day 10 post-explant): 2/7
- percentage positive for infectious HSV-1 ([1]; day 10 post-explant): (28.6%)
- delay in reactivation of HSV-1 from TGs ([1]; relative to mock): 2 fold
- degree of reactivation and amount of infectious virus shed from latent neurons (PFU/ml/TG; PFU/ml/positive TG) ([1]; relative to mock treated neurons): significantly inhibited the degree of reactivation and amount of infectious virus shed from latent neurons
- HSV-1 reactivation from latency (in words) [1]: maintains latency of HSV-1 within reactivation induced neurons
- clinical presentation of edema and chemosis [2]: greatly reduced
- vascularization of the eye [2]: resolution of vascularization
- clinical scores (three metrics) ([3]; compared to BSS control, by day 16 post-infection): even greater improvement in each metric
- clinical scores (slit-lamp biomicroscopy, stromal opacity/inflammation, corneal neovascularization) ([3]; relative to BSS controls, by day 12 post-infection, 4 μl/eye 4x daily for 8 days): decreased score in all three metrics
- vascular-like tubular growth from HMEC spheroids [4]: abrogated formation of vascular-like tubular growth
- animal body weight [5]: retained
- eyes exhibiting complete clinical resolution ([5]; by day 15): 60%
- histopathology of the eye (cornea) ([5]; day 15 post infection): normal ocular morphology with an absence of clinical signs of ocular disease
- development of all clinically scored parameters ([5]; drops for 7 days post infection, chronic disease assessed up to day 15): suppressed development of all clinically scored parameters
- control of acute and chronic vision-threatening disease compared to TFT ([5]; herpetic eye disease model): superior at controlling both acute and chronic vision-threatening disease
- neovascularization score [5, 9]: decreased
- slit lamp score [5, 9]: decreased
- stroma capacity score [5, 9]: decreased

Compound: COc1cc(C[C@@H](C)N)c(OC)cc1I [R-DOI, R-2,5-Dimethoxy-4-iodoamphetamine]
- HSV-1 reactivation from latency (in words) [1]: inhibits HSV-1 reactivation from latent neurons
- HSV-1 reactivation from latency (in words) ([1]; listed as (R)-DOI): inhibited HSV-1 reactivation from latency
- cytotoxicity by lysis ([6]; Y-79, 24 hours): strong, dose-dependent toxicity
- cytotoxicity by lysis ([6]; Y-79, 48 hours): killing effect was saturated at all doses
- cytotoxicity by lysis [7]: modest cytotoxicity
- inhibitory effects for neovascularization, sprouting, branching, and networking ([8]; 10 nM concentration): began to no longer be as effective
- blood vessel sprouting, branching and formation ([8]; VEGF-containing endothelial growth medium, matrigel): inhibited blood vessel sprouting, branching and formation
- HSV-induced pathological vascularization of the eye [5]: suppressed HSV-induced pathological vascularization of the eye
- HSV-induced pathological vascularization of the eye ([5]; listed as (R)-DOI): demonstrated anti-vascularization properties

Compound: NCCc1c[nH]c2ccc(O)cc12 [Serotonin, 5 hydroxytryptamine, reference compound]
- vascular-like tubular growth from HMEC spheroids [4]: induced vascularization-like replication and tubule growth

Compound: O=c1[nH]c(=O)n([C@H]2C[C@H](O)[C@@H](CO)O2)cc1C(F)(F)F [TFT, trifluorothymidine, reference compound]
- HSV replication ([5]; 1% TFT): complete inhibition of HSV replication
- animal body weight [5]: did not change body weight relative to BSS controls
